Patent EP4667458A1 (Kanaph Therapeutics Inc., priority 2023, dated 2024)

These compounds were tested against T1, KRAS^G12C::SOS1 (Homo sapiens, UniProt Q07889) (assay: KRAS G12C::SOS1 protein-protein interaction (PPI) inhibition assay (HTRF binding kit)).
T1 sequence (Q07889 1-1333): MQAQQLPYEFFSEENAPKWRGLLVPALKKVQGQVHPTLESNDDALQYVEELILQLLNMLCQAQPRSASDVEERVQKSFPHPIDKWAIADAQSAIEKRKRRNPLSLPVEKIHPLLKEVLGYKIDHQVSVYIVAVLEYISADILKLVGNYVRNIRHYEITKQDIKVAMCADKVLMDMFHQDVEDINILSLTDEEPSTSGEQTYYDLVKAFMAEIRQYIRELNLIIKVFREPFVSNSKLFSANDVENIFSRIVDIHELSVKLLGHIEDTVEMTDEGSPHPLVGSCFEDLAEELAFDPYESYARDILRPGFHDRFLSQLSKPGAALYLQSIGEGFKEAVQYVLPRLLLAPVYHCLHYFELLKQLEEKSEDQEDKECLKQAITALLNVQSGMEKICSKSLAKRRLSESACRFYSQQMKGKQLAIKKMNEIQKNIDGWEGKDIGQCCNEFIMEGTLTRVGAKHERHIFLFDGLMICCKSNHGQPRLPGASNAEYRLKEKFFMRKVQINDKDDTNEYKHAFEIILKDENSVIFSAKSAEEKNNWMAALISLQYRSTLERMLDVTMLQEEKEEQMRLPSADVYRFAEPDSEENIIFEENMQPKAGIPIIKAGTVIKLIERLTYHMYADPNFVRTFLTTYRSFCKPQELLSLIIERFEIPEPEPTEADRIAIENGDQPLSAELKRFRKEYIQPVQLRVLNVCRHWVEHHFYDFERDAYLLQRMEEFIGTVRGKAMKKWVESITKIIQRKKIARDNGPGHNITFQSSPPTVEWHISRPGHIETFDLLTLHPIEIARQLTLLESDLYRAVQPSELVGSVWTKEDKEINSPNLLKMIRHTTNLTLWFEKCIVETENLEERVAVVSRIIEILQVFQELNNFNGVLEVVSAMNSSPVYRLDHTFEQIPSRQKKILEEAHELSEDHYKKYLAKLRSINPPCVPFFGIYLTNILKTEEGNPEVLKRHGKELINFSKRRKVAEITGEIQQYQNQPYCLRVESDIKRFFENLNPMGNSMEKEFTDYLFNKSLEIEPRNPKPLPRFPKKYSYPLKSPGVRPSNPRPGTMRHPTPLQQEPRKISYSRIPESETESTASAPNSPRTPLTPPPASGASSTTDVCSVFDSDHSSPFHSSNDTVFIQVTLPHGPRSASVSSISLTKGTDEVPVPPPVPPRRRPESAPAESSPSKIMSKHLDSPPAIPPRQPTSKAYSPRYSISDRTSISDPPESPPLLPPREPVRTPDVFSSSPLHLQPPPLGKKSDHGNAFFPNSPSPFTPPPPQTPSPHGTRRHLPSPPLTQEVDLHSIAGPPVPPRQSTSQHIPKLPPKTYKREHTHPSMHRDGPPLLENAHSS

Row | SMILES | IC50
1 | COc1cnccc1-n1nc(C(=O)N[C@H](C)c2cc(N)cc(C(F)(F)F)c2)ccc1=O [Example 145, N-[(1R)-1-[3-amino-5-(trifluoromethyl)phenyl]ethyl]-1-(3-methoxy-4-pyridyl)-6-oxo-pyridazine-3-carboxamide] | < 1 µM
2 | C[C@@H](NC(=O)c1ccc(=O)n(-c2cccnc2)n1)c1cccc(C(F)(F)CO)c1F [Example 146, N-[(1R)-1-[3-(1,1-difluoro-2-hydroxy-ethyl)-2-fluoro-phenyl]ethyl]-6-oxo-1-(3-pyridyl)pyridazine-3-carboxamide] | < 1 µM
3 | C[C@@H](NC(=O)c1ccc(=O)n(-c2cccnc2F)c1)c1cccc(C(F)(F)CO)c1F [Example 147, N-[(1R)-1-[3-(1,1-difluoro-2-hydroxy-ethyl)-2-fluoro-phenyl]ethyl]-1-(2-fluoro-3-pyridyl)-6-oxo-pyridine-3-carboxamide] | < 1 µM
4 | Cc1ncc(-n2nc(C(=O)N[C@H](C)c3cc(N)cc(C(F)(F)F)c3)ccc2=O)cn1 [Example 161, N-[(1R)-1-[3-amino-5-(trifluoromethyl)phenyl]ethyl]-1-(2-methylpyrimidin-5-yl)-6-oxo-pyridazine-3-carboxamide] | < 1 µM
5 | C[C@@H](NC(=O)c1ccc(=O)n(-c2ccncc2)c1)c1cccc(C(F)(F)CO)c1F [Example 162, N-[(1R)-1-[3-(1,1-difluoro-2-hydroxy-ethyl)-2-fluoro-phenyl]ethyl]-6-oxo-1-(4-pyridyl)pyridine-3-carboxamide] | < 1 µM
6 | C[C@@H](NC(=O)c1ccc(=O)n(-c2ccncc2)c1)c1cc(N)cc(C(F)(F)F)c1 [Example 163, N-[(1R)-1-[3-amino-5-(trifluoromethyl)phenyl]ethyl]-6-oxo-1-(4-pyridyl)pyridine-3-carboxamide] | < 1 µM
7 | C[C@@H](NC(=O)c1ccc(=O)n(-c2cnn(C)c2)c1)c1cccc(C(F)(F)CO)c1F [Example 164, N-[(1R)-1-[3-(1,1-difluoro-2-hydroxy-ethyl)-2-fluoro-phenyl]ethyl]-1-(1-methylpyrazol-4-yl)-6-oxo-pyridine-3-carboxamide] | < 1 µM
8 | C[C@@H](NC(=O)c1ccc(=O)n(-c2cnn(C)c2)c1)c1cc(N)cc(C(F)(F)F)c1 [Example 165, N-[(1R)-1-[3-amino-5-(trifluoromethyl)phenyl]ethyl]-1-(1-methylpyrazol-4-yl)-6-oxo-pyridine-3-carboxamide] | < 1 µM
9 | C[C@@H](NC(=O)c1ccc(=O)n(-c2cccc(C(=O)N(C)C)c2)c1)c1cc(N)cc(C(F)(F)F)c1 [Example 166, N-[(1R)-1-[3-amino-5-(trifluoromethyl)phenyl]ethyl]-1-[3-(dimethylcarbamoyl)phenyl]-6-oxo-pyridine-3-carboxamide] | < 1 µM
10 | C[C@@H](NC(=O)c1ccc(=O)n(-c2cccc(S(C)(=O)=O)c2)c1)c1cc(N)cc(C(F)(F)F)c1 [Example 167, N-[(1R)-1-[3-amino-5-(trifluoromethyl)phenyl]ethyl]-1-(3-methylsulfonylphenyl)-6-oxo-pyridine-3-carboxamide] | < 1 µM
11 | COc1ccccc1-n1cc(C(=O)N[C@H](C)c2cc(N)cc(C(F)(F)F)c2)ccc1=O [Example 168, N-[(1R)-1-[3-amino-5-(trifluoromethyl)phenyl]ethyl]-1-(2-methoxyphenyl)-6-oxo-pyridine-3-carboxamide] | < 1 µM
12 | C[C@@H](NC(=O)c1ccc(=O)n(-c2cccc(CO)c2)n1)c1cc(N)cc(C(F)(F)F)c1 [Example 169, N-[(1R)-1-[3-amino-5-(trifluoromethyl)phenyl]ethyl]-1-[3-(hydroxymethyl)phenyl]-6-oxo-pyridazine-3-carboxamide] | < 1 µM
13 | C[C@@H](NC(=O)c1ccc(=O)n(-c2cccc(CO)c2)n1)c1cccc(C(F)(F)CO)c1F [Example 170, N-[(1R)-1-[3-(1,1-difluoro-2-hydroxy-ethyl)-2-fluoro-phenyl]ethyl]-1-[3-(hydroxymethyl)phenyl]-6-oxo-pyridazine-3-carboxamide] | < 1 µM
